Assay results reported in patent US12466849B2, “Anti-viral and anti-tumoral compounds” (YEDA RESEARCH AND DEVELOPMENT CO. LTD, priority 2020, dated 2025).
In brackets after ≈: the same amount, converted by molar mass. Like-named read-outs stand apart in the source and are kept apart here.

Columns and labels:
HCMV AD169 = test: HCMV plaque reduction assay, MRC-5 cells, strain AD169; format: cell-based, Human cytomegalovirus; details: for EC50: plaque assay, 6-days duration
[1] = system: Rift Valley fever virus (RVFV)
[2] = system: Japanese encephalitis virus (JEV)
[3] = system: Venezuelan equine encephalitis virus (VEEV)
enterovirus-68 (EV-68) [4] = system: enterovirus-68 (EV-68)
HFF cells = test: Cell proliferation assay, human foreskin fibroblast (HFF) cells; format: cell-based; details: Homo sapiens, 72 h, cell number
[5] = system: BK virus (BKV), Gardner strain
JC virus (JCV) [6] = system: JC virus (JCV)
[7] = human
[8] = rat; for Peak area ratio, parent: 1 µM
in vitro [9] = details: human
in vitro [10] = details: African green monkey
in vitro [11] = details: human; remark: listed apart in the source
in vitro [12] = details: rat
in vitro [13] = details: both, human, plasma
in vitro [14] = details: male, SD, rat, plasma
in vitro [15] = details: human; remark: listed apart in the source
[16] = system: BK virus (BKV), Gardner strain; test: microbe, parasite or virus in culture; details: Betapolyomavirus hominis, HFF
JC virus (JCV) [17] = test: microbe, parasite or virus in culture; details: JC polyomavirus, COS-7
[18] = Secondary JCV assay (qPCR), COS7 cells; details: African green monkey
JC virus (JCV) [19] = test: Secondary JCV assay (qPCR), COS7 cells
[20] = MRC-5 cytotoxicity assay (MTS) and visual cytotoxicity; details: human
[21] = Liver (hepatic) S9 stability, rat
[22] = Liver (hepatic) S9 stability, human
enterovirus-68 (EV-68) [23] = test: organism not typed; details: RD, read-out: EQ50
[24] = molecular target: T1, SARS-Cov2 RdRp (nsp12-nsp7-nsp8) (Severe acute respiratory syndrome coronavirus 2, UniProt P0DTD1); format: biochemical; details: primer extension; analog at 100 uM, printed 100 mM
[25] = molecular target: T1, SARS-Cov2 RdRp (nsp12-nsp7-nsp8); format: biochemical; details: after addition of GTP and CTP (third and fourth nucleotides)
[26] = Vero 76 cells without virus, test compounds

O=c1ccn([C@@H]2OC(CO)=C[C@H]2O)c(=O)[nH]1 [AB21649]
EC50 (HCMV AD169; hCMV AD169, MRC5 cells): > 0.1 mM
CC50 (adenovirus-5 (Ad5)): > 2 mM
EC50 (adenovirus-5 (Ad5)): > 2 mM
SI (adenovirus-5 (Ad5); Ad5, SI = CC50/EC50): 0
CC50 (TCRV): 1.2 mM
EC50 (TCRV): > 1.2 mM
SI (TCRV): 0
SI ([1]; RVFV, SI = CC50/EC50): 0
EC50 ([1]; RVFV, Vero 76 cells, test compounds): > 1.1 mM
CC50 [1, 26]: 1.1 mM
SI (SARS-CoV; SARS-CoV, SI = CC50/EC50): 0
EC50 (SARS-CoV; SARS-CoV, Vero 76 cells, test compounds): > 1.5 mM
CC50 (SARS-CoV; [26]): 1.5 mM
CC50 (SARS-CoV-2): > 2 mM
EC50 (SARS-CoV-2): > 2 mM
SI (SARS-CoV-2; SARS-CoV-2, SI = CC50/EC50): 0
CC50 (dengue virus-2 (DV-2)): > 2 mM
EC50 (dengue virus-2 (DV-2)): > 2 mM
SI (dengue virus-2 (DV-2); DV-2, SI = CC50/EC50): 0
CC50 [2]: 1.7 mM
EC50 [2]: > 1.7 mM
SI ([2]; JEV, SI = CC50/EC50): 0
CC50 (Powassan virus (POWV); BHK-21 cells without virus, test compounds): > 2 mM
EC50 (Powassan virus (POWV); POWV, BHK-21 cells, test compounds): > 2 mM
SI (Powassan virus (POWV); POWV, SI = CC50/EC50): 0
CC50 (West Nile virus (WNV)): 1.4 mM
EC50 (West Nile virus (WNV)): > 1.4 mM
SI (West Nile virus (WNV); WNV, SI = CC50/EC50): 0
CC50 (Yellow fever virus (YFV); Huh7 cells without virus, test compounds): > 2 mM
EC50 (Yellow fever virus (YFV); YFV, Huh7 cells, test compounds): > 2 mM
SI (Yellow fever virus (YFV); YFV, SI = CC50/EC50): 0
SI ([3]; VEEV, SI = CC50/EC50): 0
EC50 ([3]; VEEV, Vero 76 cells, test compounds): > 1.1 mM
CC50 [3, 26]: 1.1 mM
CC50 (Zika virus): 1.5 mM
EC50 (Zika virus): > 1.5 mM
SI (Zika virus; Zika, SI = CC50/EC50): 0
CC50 (influenza A(H1N1)): 1.4 mM
EC50 (influenza A(H1N1)): 0.56 mM
antiviral activity against Influenza (H1N1) (in words) (influenza A(H1N1)): exhibits antiviral activity
SI (influenza A(H1N1); influenza A(H1N1), SI = CC50/EC50): 2.5
CC50 (influenza A(H5N1); MDCK cells without virus, test compounds): 1.3 mM
antiviral activity against Influenza (H5N1) (in words) (influenza A(H5N1); Table 11): exhibits antiviral activity
EC50 (influenza A(H5N1); influenza A(H5N1), MDCK cells, test compounds): 0.8 mM
SI (influenza A(H5N1); influenza A(H5N1), SI = CC50/EC50): 1.6
CC50 (Influenza B): 1.3 mM
EC50 (Influenza B): 0.31 mM
antiviral activity against Influenza B (in words) (Influenza B): exhibits antiviral activity
SI (Influenza B; Influenza B, SI = CC50/EC50): 4.2
CC50 (RSV): 1.9 mM
EC50 (RSV): > 1.9 mM
SI (RSV; RSV, SI = CC50/EC50): 0
SI (poliovirus-1 (POV-1); POV-1, SI = CC50/EC50): 0
EC50 (poliovirus-1 (POV-1); POV-1, Vero 76 cells, test compounds): > 1 mM
CC50 (poliovirus-1 (POV-1); [26]): 1 mM
CC50 (enterovirus-68 (EV-68) [4]): 0.39 mM
EC50 (enterovirus-68 (EV-68) [4]; 33°C): > 0.39 mM
SI (enterovirus-68 (EV-68) [4]; EV-68, SI = CC50/EC50): 0
CC50 (MRC-5 cells): > 0.1 mM

CCCCCCCCCCCCCCCCOCCCOP(=O)(O)OCC1=CC(O)C(n2ccc(=O)[nH]c2=O)O1 (centres unmarked) [AB23039]
EC50 (HCMV AD169; Human betaherpesvirus 5, 144 h, hCMV AD169, MRC5 cells): 0.0181 mM
antiviral activity against hCMV (in words) (HCMV AD169; MRC5 cells, AD169 strain): impressive antiviral activity
Selectivity Index (CC50/EC50) (HCMV AD169; hCMV AD169, MRC5 cells): 2.33
IC50 (HFF cells): > 0.1 mM
Activity [5]: HI (key: NA (Not Active) SI50 = 0-3.9; LO (Slightly Active) SI50 = 4-9.9; MOD (Moderately Active) SI50 = 10-19.9; HI (Highly Active) SI50 = ≥20)
activity against BK virus (in words) [5]: high activity
Activity (JC virus (JCV) [6]): HI (key: NA (Not Active) SI50 = 0-3.9; LO (Slightly Active) SI50 = 4-9.9; MOD (Moderately Active) SI50 = 10-19.9; HI (Highly Active) SI50 = ≥20)
activity against JC virus (in words) (JC virus (JCV) [6]): high activity
CLhep ([7]; 1 μM): 9.1 mL/min/kg
Eh ([7]; 1 μM): 44%
Peak area ratio, parent ([7]; 15 min, 1 μM): 3.41E−01
Peak area ratio, parent ([7]; 60 min, 1 μM): 3.09E−01
hydrolytic stability in hepatic S9 (in words) ([7]; s9): most stable
T1/2 ([7]; s9, 1 μM): 4.42 h
CLhep ([8]; 1 μM): 14.3 mL/min/kg
Eh ([8]; 1 μM): 26%
Peak area ratio, parent ([8]; 15 min): 3.61E−01
Peak area ratio, parent ([8]; 60 min): 3.25E−01
hydrolytic stability in hepatic S9 (in words) ([8]; s9): most stable
T1/2 ([8]; s9, 1 μM): 5.78 h
CC50 (in vitro [9]): 0.0909 mM
CC50 (in vitro [10]): 0.0718 mM
microsomal CLint at 1 μM (in vitro [11]; s9): 5.2 µL/min/mg
half-life at 1 μM (in vitro [11]; s9, T1/2): 4.41 h
microsomal CLint at 1 μM (in vitro [12]; s9): 4 µL/min/mg
half-life at 1 μM (in vitro [12]; s9, T1/2): 5.79 h
half-life at 0.75 µM (in vitro [13]): > 9.32 h
half-life at 0.75 μM (in vitro [13]): > 9.3 h
half-life at 0.75 µM (in vitro [14]): > 9.32 h
half-life at 0.75 μM (in vitro [14]): > 9.3 h
CC50 at 7 d (in vitro [15]): > 0.15 mM
EC50 [16]: 0.00086 mM
EC90 [16]: 0.00776 mM
EC50 (JC virus (JCV) [17]): 0.00021 mM
EC90 (JC virus (JCV) [17]): 0.0234 mM
CC50 at 7 days [18]: 0.0468 mM
EC50 (JC virus (JCV) [19]; JC polyomavirus, COS-7, 168 h): 0.00307 mM
EC90 (JC virus (JCV) [19]; JC polyomavirus, COS-7, 168 h): 0.00944 mM
Activity (JC virus (JCV) [19]; secondary JCV assay, COS7 cells, class by SI50): MOD (MOD (Moderately Active) SI50 = 10-19.9)
antiviral activity against JCV (in words) (JC virus (JCV) [19]; secondary testing, COS7 cells): moderate
CC50 at 6 days [20]: 0.0422 mM

COc1ccc2c(c1)[C@]13CCCC[C@@H]1[C@H](C2)N(C)CC3 [Dextromethorphan]
CLhep ([21]; predicted from S9 CLint (well-stirred model)): 37.2 mL/min/kg
half-life at 1 μM ([21]; s9): 0.98 h
microsomal CLint at 1 μM ([21]; s9): 23.6 µL/min/mg
T1/2 ([22]; human liver S9, 0.5 mg/mL, NADPH incubation (Table 24 gives without NADPH)): 1.57 h
microsomal CLint at 1 μM ([22]; human, s9): 14.7 µL/min/mg
CLhep ([22]; human, predicted from S9 CLint (well-stirred model)): 14.3 mL/min/kg

CCOC(=O)c1ccc(OCCC2CCN(c3ccc(C)nn3)CC2)cc1 [Pirodavir]
CC50 (enterovirus-68 (EV-68) [4]; human): 4.3 µg/mL
EC50 (enterovirus-68 (EV-68) [23]): 0.039 µg/mL (≈ 0.106 µM)

N#C[C@@]1(c2ccc3c(N)ncnn23)OC(COP(=O)(O)OP(=O)(O)OP(=O)(O)O)=C[C@H]1O [ddhREM-TP, ddhRemdesivir]
incorporation into RNA by SARS-Cov2 RdRp (in words) [24]: incorporated into RNA as ATP analogs
chain termination of RNA synthesis (in words) [25]: caused termination of RNA synthesis
